US20260009799A1, “CA-IX TARGETING FLUORESCENT PROBES” (BRACCO IMAGING S.P.A., priority 2022, published 2026)

How the values were obtained:
CA-IX on HT-29 cells = target: T1, CA-IX on HT-29 cells (Homo sapiens, UniProt Q16790); experiment: Cellular specificity: binding to HT-29 cells in competition with MSC8 antibody; assay type: cell-based; conditions: compound 1 0.125 μM, MSC8 0.0125/0.125/1.25/2.5 μM, on ice
T1 construct: CA-IX, expressed in its physiological environment at the cell-surface; host or cells: HT-29 human colorectal adenocarcinoma cells
Experimental: HT-29 cells were co-incubated, on ice in suspension, with compound 1, at the established concentration of 0.125 μM, and different concentrations of MSC8 (0.1×, 1×, 10× and 20× with respect to compound 1, i.e. 0.0125/0.125/1.25/2.5 μM); in addition, HT-29 cells were incubated with either compound 1 alone, or each concentration of MSC8 alone as well. The resulting binding of both compound 1 and MSC8 was then recorded as cell-associated fluorescence intensity, using for MSC8 a secondary antibody labelled with Alexa Fluor™ 488 (ThermoFischer), and compared to the one resulting from both compounds alone, taken as 100%.

target receptor CA-IX = target: T2, target receptor CA-IX (Homo sapiens, UniProt Q16790); experiment: Cell uptake competition with 100x excess acetazolamide; assay type: cell-based; conditions: for % uptake in presence of 100x excess acetazolamide: 1 μM, 2 hours at 37° C., residual cellular uptake; for share of cell-associated fluorescence due to non-specific cellular uptake: flow cytometry
T2 construct: endogenous in cells
Experimental: The receptor-mediated uptake, i.e. whether the uptake of the probes was mediated by binding to the target receptor CA-IX, was analyzed by performing competition experiments.

[1] = Optical characterization (excitation/emission maxima, molar extinction coefficient); assay type: physicochemical; conditions: for Max Em (nm, PBS pH 7.4) / Max Em (nm, Seronorm): emission maximum; for Max Em (nm, Seronorm) / Max Ex (nm, Seronorm): Seronorm control serum; for Max Ex (nm, PBS pH 7.4) / Max Ex (nm, Seronorm): excitation maximum
Experimental: A dual-beam UV-VIS spectrophotometer (Lambda 40, Perkin Elmer) was used to determine the absorbance (Abs) of the compounds of the invention. Emission/excitation (Em/Ex) spectra were carried out on a spectrofluorometer (FluoroLog-3 1IHR-320, Horiba Jobin Yvon) equipped with an F-3018 integrating sphere accessory. The measurements were performed using an excitation wavelength at maximum absorbance of different dyes, and the sample was excited with a 450 W Xenon light Source. Detection was performed by photomultiplier tubes (PMT-NIR) cooled detector or by TBX-04 detector. Dye solutions were carefully prepared to have an absorbance lower than 0.1 (optical densities) to minimize re-absorption phenomena.
The compounds of the invention were characterized in terms of their optical properties in vitro in aqueous medium (i.e., water/PBS pH 7.4) and in a clinical chemistry control serum (Seronorm, Sero SA), mimicking the chemical composition and optical properties of human serum. All solutions were freshly prepared. In particular, the compounds of the invention are characterized by absorption maxima comprised in the range from about 750 nm to 780 nm.
The excitation and emission maxima in PBS and Seronorm and the molar extinction coefficient (ε) in water of representative compounds of formula (I) are shown in Table I in comparison with the known CA-IX targeting fluorescent probe named Hypoxyfluor-1 (HF-1, for instance disclosed in Bioconjugate Chem 2018, 29, 3320-3331). […] Moreover, the extinction coefficients were higher than 200,000 mM^−1 cm^−1 for all compounds.

[2] = tested on: HT-29 excised tumors and tissues; experiment: Ex vivo biodistribution in excised tumors and organs; set-up: species or system mice; conditions: for ex vivo TBR, times higher than respective References 2 and 3: 1 nmol/mouse, 24 hours; for Organ-to-muscle ratio, intestine (mean ± SD) / Organ-to-muscle ratio, kidney (mean ± SD) / Organ-to-muscle ratio, liver (mean ± SD) / Organ-to-muscle ratio, skin (mean ± SD) / Organ-to-muscle ratio, spleen (mean ± SD) / Organ-to-muscle ratio, stomach (mean ± SD): ex vivo, 24 hours after administration; for Organ-to-muscle ratio, intestine (mean ± SD) / Organ-to-muscle ratio, kidney (mean ± SD) / Organ-to-muscle ratio, liver (mean ± SD) / Organ-to-muscle ratio, skin (mean ± SD) / Organ-to-muscle ratio, spleen (mean ± SD) / Organ-to-muscle ratio, stomach (mean ± SD) / ex vivo TBR (mean ± SD), HT-29 tumor: 1 nmol; for ex vivo TBR (mean ± SD), HT-29 tumor: samples collected 24 hours after administration, tumor vs hind limb muscle
Experimental: The ex vivo biodistribution of the representative compounds 1 and 2 and of the reference compounds (at 1 nmol/mouse) was evaluated in HT-29 excised tumors and tissues at the end of the in vivo OI sessions 24 hours post intravenous administration. At the end of the in vivo experiment, animals were euthanized by overdose of gaseous anesthesia followed by cervical dislocation. Tumor tissue, muscle, and other organs of interest were removed for ex vivo fluorescent signal measurements. The fluorescence signal intensity was measured by the IVIS Spectrum system. Regions of interest (ROIs) were drawn around each organ and tumor using the Living Image Software (PerkinElmer) and evaluating signal intensity in the tissues (expressed as Average Radiant Efficiency). The ratio between the fluorescence signal in the organs and tumor was then calculated to assess the contrast to hind limb muscle (representing the background).

SMILES | binding of compound 1 to HT-29 cells in presence of MSC8 (CA-IX on HT-29 cells) | % uptake in presence of 100x excess acetazolamide (target receptor CA-IX) | share of cell-associated fluorescence due to non-specific cellular uptake (target receptor CA-IX) | Max Em (nm, PBS pH 7.4) [1] | Max Em (nm, Seronorm) [1] | Max Ex (nm, PBS pH 7.4) [1] | Max Ex (nm, Seronorm) [1] | ex vivo TBR, times higher than respective References 2 and 3 [2] | Organ-to-muscle ratio, intestine (mean ± SD) [2] | Organ-to-muscle ratio, kidney (mean ± SD) [2] | Organ-to-muscle ratio, liver (mean ± SD) [2] | Organ-to-muscle ratio, skin (mean ± SD) [2] | Organ-to-muscle ratio, spleen (mean ± SD) [2] | Organ-to-muscle ratio, stomach (mean ± SD) [2] | ex vivo TBR (mean ± SD), HT-29 tumor [2]
CC1(C)C(/C=C/C2=C(Oc3ccc(S(=O)(=O)O)cc3)C(=C/C=C3/N(CCCCCC(=O)NCCCCCCCC(=O)Nc4nnc(S(N)(=O)=O)s4)c4ccc(C(=O)NC[C@H](O)[C@@H](O)[C@H](O)[C@H](O)CO)cc4C3(C)C)/CCC2)=[N+](CCCCS(=O)(=O)[O-])c2ccc(C(=O)NC[C@H](O)[C@@H](O)[C@H](O)[C@H](O)CO)cc21 [Compound 1] | reduced in a dose-dependent manner | 6.5 ± 2.2% | about 10% | 806 nm | 812 nm | 782 nm | 792 nm | about 1.5 times | 1.8 ± 0.4 | 6.0 ± 1.1 | 4.2 ± 0.7 | 1.2 ± 0.1 | 0.9 ± 0.2 | 5.4 ± 0.8 | 13.4 ± 2.2
CC(CC[N+]1=C(/C=C/C=C/C=C/C=C2/N(CCCCCC(=O)NCCCCCCCC(=O)Nc3nnc(S(N)(=O)=O)s3)c3ccc(C(=O)NC[C@H](O)[C@@H](O)[C@H](O)[C@H](O)CO)cc3C2(C)C)C(C)(C)c2cc(C(=O)NC[C@H](O)[C@@H](O)[C@H](O)[C@H](O)CO)ccc21)S(=O)(=O)[O-] (some centres unmarked) [Compound 2] | – | 11.3 ± 1.7% | about 10% | 788 nm | 790 nm | 758 nm | 762 nm | about 1.5 times | 1.6 ± 0.3 | 7.1 ± 1.5 | 3.3 ± 0.4 | 1.5 ± 0.3 | 1.0 ± 0.1 | 6.8 ± 1.3 | 23.1 ± 6.7
